Reference: ChEMBL document CHEMBL1126300, “Quinoline antifolate thymidylate synthase inhibitors: variation of the C2- and C4-substituents” (J Med Chem, 1992)

Columns and labels:
L1210 = assay: In vitro inhibition of L1210 mouse leukemia cell growth in culture; assay type: functional, cell-based
Thymidylate synthase = Thymidylate synthase (Mus musculus, UniProt P07607); assay: In vitro inhibitory activity against thymidylate synthase from L1210 mouse leukemia cells; assay type: cell-based
WIL2 = assay: Inhibition of human derived cell line W1-L2 cell proliferation; assay type: functional, cell-based

Thymidylate synthase, sequence (P07607 whole entry): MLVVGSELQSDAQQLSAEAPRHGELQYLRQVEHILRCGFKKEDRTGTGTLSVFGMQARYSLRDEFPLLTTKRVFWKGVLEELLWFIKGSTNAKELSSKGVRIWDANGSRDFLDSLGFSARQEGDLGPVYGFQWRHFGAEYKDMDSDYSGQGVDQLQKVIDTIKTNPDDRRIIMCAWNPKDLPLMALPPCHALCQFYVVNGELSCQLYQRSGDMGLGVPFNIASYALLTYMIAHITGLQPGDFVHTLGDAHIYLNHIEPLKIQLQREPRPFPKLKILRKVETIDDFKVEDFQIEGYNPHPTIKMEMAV

Structure (SMILES) | IC50 (L1210) | IC50 (Thymidylate synthase) | IC50 (WIL2)
Cc1cc(Cl)c2cc(CNc3ccc(C(=O)N[C@@H](CCC(=O)O)C(=O)O)cc3)ccc2n1 | > 100 µM | 38000 nM | –
CCN(Cc1ccc2nc(CO)cc(Cl)c2c1)c1ccc(C(=O)N[C@@H](CCC(=O)O)C(=O)O)cc1 | > 100 µM | 1050 nM | –
C#CCN(Cc1ccc2nc(C)cc(Br)c2c1)c1ccc(C(=O)N[C@@H](CCC(=O)O)C(=O)O)c(F)c1 | 1 µM | 96 nM | –
C#CCN(Cc1ccc2[nH]c(N)nc(=O)c2c1)c1ccc(C(=O)N[C@@H](CCC(=O)O)C(=O)O)cc1 | – | – | 440 nM
C#CCN(Cc1ccc2nc(N)cc(Cl)c2c1)c1ccc(C(=O)N[C@@H](CCC(=O)O)C(=O)O)c(F)c1 | 2.9 µM | 48 nM | –
C#CCN(Cc1ccc2nc(C)cc(Cl)c2c1)c1ccc(C(=O)N[C@@H](CCC(=O)O)C(=O)O)c(F)c1 | 0.42 µM | 66 nM | –
CCN(Cc1ccc2nccc(Cl)c2c1)c1ccc(C(=O)N[C@@H](CCC(=O)O)C(=O)O)cc1 | 30 µM | 1130 nM | –
C#CCN(Cc1ccc2nc(C)cc(C#N)c2c1)c1ccc(C(=O)N[C@@H](CCC(=O)O)C(=O)O)cc1 | 75 µM | 1500 nM | –
CCN(Cc1ccc2nc(N)cc(OC)c2c1)c1ccc(C(=O)N[C@@H](CCC(=O)O)C(=O)O)cc1 | 100 µM | 1900 nM | –
C#CCN(Cc1ccc2nc(C)cc(OC)c2c1)c1ccc(C(=O)N[C@@H](CCC(=O)O)C(=O)O)cc1 | > 100 µM | 6000 nM | –
CCN(Cc1ccc2nc(C)cc(Cl)c2c1)c1ccc(C(=O)N[C@@H](CCC(=O)O)C(=O)O)cc1 | 23 µM | 740 nM | –
C#CCN(Cc1ccc2nc(C)cc(SC)c2c1)c1ccc(C(=O)N[C@@H](CCC(=O)O)C(=O)O)cc1 | 100 µM | 8900 nM | –
C#CCN(Cc1ccc2nc(Cl)cc(Cl)c2c1)c1ccc(C(=O)N[C@@H](CCC(=O)O)C(=O)O)c(F)c1 | 1 µM | 23 nM | –
Cc1cc(Cl)c2cc(CN(C)c3ccc(C(=O)N[C@@H](CCC(=O)O)C(=O)O)cc3)ccc2n1 | 24 µM | 2300 nM | –
C#CCN(Cc1ccc2nc(C)ccc2c1)c1ccc(C(=O)N[C@@H](CCC(=O)O)C(=O)O)cc1 | > 100 µM | 7900 nM | –

Now from value to compound, other results behind:

IC50 (L1210) | IC50 (Thymidylate synthase) | Structure (SMILES) | IC50 (WIL2)
4 µM | 350 nM | C#CCN(Cc1ccc2nc(N)cc(C)c2c1)c1ccc(C(=O)N[C@@H](CCC(=O)O)C(=O)O)cc1 | –
11 µM | 96 nM | C#CCN(Cc1ccc2nc(N)cc(Cl)c2c1)c1ccc(C(=O)N[C@@H](CCC(=O)O)C(=O)O)cc1 | –
> 100 µM | 31000 nM | C#CCN(Cc1ccc2nc(C(=O)O)cc(Cl)c2c1)c1ccc(C(=O)N[C@@H](CCC(=O)O)C(=O)O)cc1 | –
8 µM | 250 nM | C#CCN(Cc1ccc2nc(C)cc(Cl)c2c1)c1ccc(C(=O)N[C@@H](CCC(=O)O)C(=O)O)cc1 | –
> 100 µM | 1200 nM | C#CCN(Cc1ccc2nc(NC(C)=O)cc(Cl)c2c1)c1ccc(C(=O)N[C@@H](CCC(=O)O)C(=O)O)cc1 | –
> 100 µM | 6300 nM | C#CCN(Cc1ccc2nc(C)cc(O)c2c1)c1ccc(C(=O)N[C@@H](CCC(=O)O)C(=O)O)cc1 | –
– | 150 nM | C#CCN(Cc1ccc2nc(Cl)cc(OC)c2c1)c1ccc(C(=O)N[C@@H](CCC(=O)O)C(=O)O)cc1 | –
> 100 µM | 620 nM | C#CCN(Cc1ccc2nc(CF)cc(Cl)c2c1)c1ccc(C(=O)N[C@@H](CCC(=O)O)C(=O)O)cc1 | –
> 100 µM | 150 nM | C#CCN(Cc1ccc2nc(C(F)(F)F)cc(Cl)c2c1)c1ccc(C(=O)N[C@@H](CCC(=O)O)C(=O)O)cc1 | –
> 100 µM | – | C#CCN(Cc1ccc2nc(C)cc(C)c2c1)c1ccc(C(=O)N[C@@H](CCC(=O)O)C(=O)O)cc1 | –
> 100 µM | 9000 nM | C#CCN(Cc1ccc2nc(OC)cc(Cl)c2c1)c1ccc(C(=O)N[C@@H](CCC(=O)O)C(=O)O)cc1 | –
> 100 µM | 1900 nM | C#CCN(Cc1ccc2nc(C(N)=O)cc(Cl)c2c1)c1ccc(C(=O)N[C@@H](CCC(=O)O)C(=O)O)cc1 | –
14 µM | 220 nM | C#CCN(Cc1ccc2nc(C)cc(Br)c2c1)c1ccc(C(=O)N[C@@H](CCC(=O)O)C(=O)O)cc1 | –
> 100 µM | 990 nM | C#CCN(Cc1ccc2nc(CC)cc(Cl)c2c1)c1ccc(C(=O)N[C@@H](CCC(=O)O)C(=O)O)cc1 | –
> 100 µM | 120 nM | C#CCN(Cc1ccc2nc(Cl)cc(C)c2c1)c1ccc(C(=O)N[C@@H](CCC(=O)O)C(=O)O)cc1 | –
8 µM | – | C#CCN(Cc1ccc2nc(Cl)cc(Cl)c2c1)c1ccc(C(=O)N[C@@H](CCC(=O)O)C(=O)O)cc1 | –
> 100 µM | 2600 nM | C#CCN(Cc1ccc2nc(Cl)ccc2c1)c1ccc(C(=O)N[C@@H](CCC(=O)O)C(=O)O)cc1 | –
